{
  "source": "patent US11442059B2",
  "about": "“Method for treating a chronic itch condition by administering small molecule MrgprX4 antagonists” (The Johns Hopkins University, priority 2017, dated 2022)",
  "target": "T1, MRGPRX2 (Homo sapiens, UniProt Q96LB1)",
  "T1 construct": "expressed in transfected cells; host or cells: HEK293 (MRGPRX2-HEK) membranes on silica",
  "T1 sequence (Q96LB1 1-330)": "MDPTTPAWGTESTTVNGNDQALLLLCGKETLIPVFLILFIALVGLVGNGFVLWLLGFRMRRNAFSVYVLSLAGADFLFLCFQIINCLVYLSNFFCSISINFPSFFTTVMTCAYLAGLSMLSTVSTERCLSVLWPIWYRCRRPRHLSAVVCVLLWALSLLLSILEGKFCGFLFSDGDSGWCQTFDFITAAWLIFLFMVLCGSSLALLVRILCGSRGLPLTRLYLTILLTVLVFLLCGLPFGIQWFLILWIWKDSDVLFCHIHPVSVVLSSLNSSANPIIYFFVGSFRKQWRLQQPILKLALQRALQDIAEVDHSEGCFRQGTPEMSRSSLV",
  "assay": "Cell membrane chromatography, MRGPRX2/CMC column",
  "format": "binding",
  "settings": "affinity chromatography elution profile",
  "method": "CMC analysis was performed with a Shimadzu LC-2010A apparatus that consisted of pumps, degasser, autosampler, column oven, and a diode-array detector (Shimadzu, Kyoto, Japan). The data were acquired by the Lab-solution program (Shimadzu). The mobile phase consisted of phosphate-buffered saline (PBS; 5 mM, pH 7.4) and was delivered at a flow rate of 0.2 ml/min. The stock solutions (100 μM) of lamotrigine were prepared by separately dissolving the standard drugs in methanol. Standard solutions at various concentrations were prepared by diluting the stock solutions with the mobile phase. The MRGPRX2/CMC and MRGPRX4/CMC column was prepared as follows. Briefly, MRGPRX4-expressed HEK293 cells (1×10^8) were harvested and centrifuged (1000 g, 10 min, at 4° C.). Cells were washed with physiological saline (pH=7.4) by centrifugation at 1000 g for 10 min at 4° C. Cells were lysed by ultrasonic in Tris-HCl (50 mM, pH=7.4) for 30 min and centrifuged twice at 1000 g for 10 min at 4° C. The collected supernatant was then centrifuged at 12000 g for 20 min at 4° C. and the pellet was resuspended in 5 ml ice-cold physiological saline solution. […] The cell membrane suspension was homogenized/adsorbed with the activated silica under vacuum with agitation at 4° C. overnight. […]",
  "data": [
    {"smiles": "Nc1nnc(-c2cccc(Cl)c2Cl)c(N)n1", "note": "[LTG, Lamotrigine]", "values": [
      {"measurement": "retention on MRGPRX2/CMC column", "value": "cannot retain"}
    ]}
  ]
}
